{"source": "patent US20100234238A1", "about": "“METHOD FOR PROFILING KINASE INHIBITORS” (Janssen Pharmaceutica N V, priority 2006, published 2010)", "tested_on": "xenograft tumors", "test": "Response of subcutaneous xenograft tumors to MTKI in vivo", "set-up": "species or system nude immuno-compromised mice", "details": "for response status: response to MTKI in vivo", "protocol": "To explore whether a similar approach allows for the classification of responder and non-responder tumors, the same strategy as above was applied to 12 different xenograft tumors, which were subcutaneously grown in nude immuno-compromised mice from human cancer cell lines. […] Lysates were made from homogenized frozen tumor blocks and analyzed in the absence or presence of 5 μM MTKI, as before."}
{"smiles": "COc1cc2ncnc3c2cc1OCCCCCN(C)Cc1ccc(Br)cc1N3", "note": "[MTKI, 4,6-ethanediylidenepyrimido[4,5-b][6,1,12]benzoxadiazacyclopentadecine, 17-bromo-8,9,10,11,12,13,14,19-octahydro-20-methoxy-13-methyl-]", "values": [{"measurement": "response status", "setting": "A431 xenograft tumor", "result": "R"}, {"measurement": "response status", "setting": "BT474 xenograft tumor", "result": "R"}, {"measurement": "responsiveness of xenograft tumors in vivo", "setting": "DU145, SUM149 and BT474 tumors", "result": "potent inhibition of tumor growth"}, {"measurement": "response status", "setting": "DU145 xenograft tumor", "result": "R"}, {"measurement": "response status", "setting": "H322 xenograft tumor", "result": "R"}, {"measurement": "responsiveness of xenograft tumors in vivo", "setting": "H460 and H441, HT29, PC3, SKOV3, H1703 tumors", "result": "non-responsive"}, {"measurement": "responsiveness of xenograft tumors in vivo", "setting": "H3255, A431 and H322 tumors", "result": "abrupt tumor regression"}, {"measurement": "response status", "setting": "H3255 xenograft tumor", "result": "R"}, {"measurement": "response status", "setting": "SUM149 xenograft tumor", "result": "R"}]}
